In patent publication US20230145823A1 (priority 2020, published 2023):
Like-named read-outs stand apart in the source and are kept apart here.

Columns and labels:
NO [1] = assay type: cell-based; details: RAW264.7 cells, LPS, 25 μM furosemide, 24 h
TNF-α [2] = assay type: cell-based; details: RAW264.7 cells, LPS, 25 μM furosemide, 24 h
TLR4 = experiment: LPS-induced TLR4 expression in RAW264.7 macrophage cells, flow cytometry; assay type: cell-based; details: RAW264.7 cells stimulated with LPS
Procedure: RAW264.7 cells were purchased from ATCC and maintained in Dulbecco's Modified Eagle's Medium (DMEM) containing foetal bovine serum (FBS) at a final concentration of 10%. RAW264.7 cells were seeded in 12-well plates at 0.25×10^6 cells/well seeding density, one day before experiments. […]; conditioned media and lysates were harvested for analysis.
Cells were harvested and re-suspended with staining buffer. Cells were stained with antibody (1:100) by incubating at 4° C. for 30 min in the dark. Stained cells were centrifuged, and the supernatant was discarded. The cell pellets were then re-suspended in cell flow buffer, transferred to FACS tubes and analyzed by flow cytometry within 48 h. To all cells in the experiment, Fc blocker was added.
LPS is recognized by the cell surface pattern-recognition receptors such as the toll-like receptor 4 protein (TLR4) and triggers downstream signaling pathways. LPS induces expression of the pro-inflammatory cytokine IFNγ. IFNγ is known to increase TLR4 expression which may then promote the response to LPS stimulation. […]

pro-IL-1β = pro-IL-1β expression in differentiated THP-1 macrophages, Western blot; assay type: cell-based; details: PMA-differentiated THP-1 cells, LPS/IFNγ, 48 h
Procedure: (§1) THP-1 cells (ATCC) were maintained in RPMI 1,640 medium supplemented with 2-mercaptoethanol at a final concentration of 0.05 mM and FBS at a final concentration of 10%. THP-1 cells were seeded in each well of a 12-well tissue culture plate at a density 0.5×10^6 cells/mL, one day before experiments. THP-1 monocytes were differentiated by 150 nM PMA (phorbol 12-myristate 13-acetate) for 24 h.
Cells were washed twice with ice-cold PBS and harvested in RIPA buffer supplemented with a protease inhibitor cocktail. The whole-cell extracts were then centrifuged at 22,000×g for 20 min at 4° C. to remove cell debris. Protein concentrations were quantified using a Micro BCA protein assay kit. The absorbance was measured at 595 nm using a microplate reader. Equal amounts of cellular protein were separated by sodium dodecyl sulfate-polyacrylamide gel electrophoresis (SDS-PAGE) and transferred onto polyvinylidene difluoride (PVDF) membranes at 100 V for 90 min. The SDS-PAGE was performed with 10% polyacrylamide gel for iNOS and 12.5% for pro-IL-1β. The membranes were blocked for 1 h in Tris-buffered saline (TBS), pH 7.4, with 0.1% Tween-20 (TBS-T) containing 10% skim milk. […]

NO [3] = experiment: LPS-induced NO production from SIM-A9 cells, Griess assay; assay type: cell-based; details: SIM-A9 cells stimulated with LPS
Procedure: Nitric oxide production from the conditioned media of RAW264.7 and SIM-A9 cell cultures was examined by a Griess assay. Conditioned medium and sulfanilamide were mixed in a microwell plate to form a transient diazonium salt. Then, N-naphtyl-ethylenediamine was added to all wells to form a stable azo compound by incubating for 5-10 min in the dark at room temperature. The absorbance was measured between 520 nm and 550 nm. The concentration of NO production was quantified by being plotted against a standard curve.
(§2) SIM-A9 (ATCC) cells were maintained in Dulbecco's modified eagle medium: nutrient mixture F-12 (DMEM-F12) with 10% foetal bovine serum, 5% horse-serum and antibiotic-antimycotic. SIM-A9 cells were seeded 24 h before the experiment. Culturing medium was replaced with DMEM-F12 medium containing 5% FBS+2.5% horse serum with required LPS concentration (final volume was one mL/well). The conditioned media and lysates were harvested for cytokine and cell marker examination.
. IL-1β plays a key role in modulating inflammatory response as a downstream pro-inflammatory marker of the TLR4 signaling pathway by using differentiated THP-1 monocytes. The expression of IL-1β precursor protein (pro-IL-1β) from THP-1 macrophage cells was studied using Western blot analysis. […]. […]

IL-6 = experiment: LPS-induced IL-6 production from SIM-A9 cells, ELISA; assay type: cell-based; details: SIM-A9 cells stimulated with LPS
Procedure: (§3) Cytokines were quantified using ELISA kits following the manufacturer's instructions. Briefly, the high-binding plates were coated at 100 μL/well with diluted capture antibodies (1:250) at 4° C. overnight. The coated plates were then blocked with the diluent for 1 h before assay. Each sample was diluted accordingly and added to the plates for a 2 h incubation period at room temperature. Plates were then washed with 250 μL/well PBS with 0.05% Tween-20 and incubated with detection antibodies (1:250 in assay diluent) for 1 h at room temperature. After another washing step, 1:250 diluted avidin-HRP (horseradish peroxidase) was added and incubated for 30 min. Next, 100 μL TMB-substrate (3,3′,5,5′-tetramethylbenzidine) was added and the plate was incubated in the dark until the signal was sufficiently developed. […]. Absorbance was measured at 450 nm with a correction of 570 nm using a plate reader.
as §2
. […]

TNF-α [4] = experiment: LPS-induced TNF-α production from SIM-A9 cells, ELISA; assay type: cell-based; details: SIM-A9 cells stimulated with LPS
Procedure: as §3, §2
. […]

IL-4 = IL-4 in conditioned medium of differentiated THP-1 cells, Multiplex assay using flow cytometry; assay type: cell-based; details: LPS and IFNγ, 48 h
Procedure: as §1
(§4) . The levels of anti-inflammatory cytokines from the conditioned medium of differentiated THP-1 cells were measured after 48 h of stimulation with LPS and IFNγ by Multiplex assay using flow cytometry. […]

[5] = system: interleukin-1 receptor antagonist (IL-1RA); experiment: IL-1RA in conditioned medium of differentiated THP-1 cells, Multiplex assay using flow cytometry; assay type: cell-based; details: LPS and IFNγ, 48 h
Procedure: as §1
The levels of anti-inflammatory cytokines from the conditioned medium of differentiated THP-1 cells were measured after 48 h of stimulation with LPS and IFNγ by Multiplex assay using flow cytometry.

arginase = experiment: Arginase in conditioned medium of differentiated THP-1 cells, Multiplex assay using flow cytometry; assay type: cell-based; details: LPS and IFNγ, 48 h
Procedure: as §1, §4

[6] = system: inducible nitric oxide synthase (iNOS); details: RAW264.7, LPS+IFNγ, 25 μM furosemide, 24 h
Procedure: Cells were washed twice with ice-cold PBS and harvested in RIPA buffer supplemented with a protease inhibitor cocktail. The whole-cell extracts were then centrifuged at 22,000×g for 20 min at 4° C. to remove cell debris. Protein concentrations were quantified using a Micro BCA protein assay kit. The absorbance was measured at 595 nm using a microplate reader. Equal amounts of cellular protein were separated by sodium dodecyl sulfate-polyacrylamide gel electrophoresis (SDS-PAGE) and transferred onto polyvinylidene difluoride (PVDF) membranes at 100 V for 90 min. The SDS-PAGE was performed with 10% polyacrylamide gel for iNOS and 12.5% for pro-IL-1β. The membranes were blocked for 1 h in Tris-buffered saline (TBS), pH 7.4, with 0.1% Tween-20 (TBS-T) containing 10% skim milk. The membrane blot was then incubated overnight at 4° C. with primary antibodies against iNOS (1:1,000), IL-1(3 (1:1,000), actin (1:5,000) and GAPDH (1:5,000) in TBS-T containing 5% skim milk. The membrane was washed with TBS-T 3×10 mins and incubated with goat anti-rabbit IgG-horseradish peroxidase (1:5,000) for 1 hour. After the washing step, the immunoblotting was visualized by chemiluminescence HRP-substrate.

[7] = cited from earlier work
[8] = previous studies; cited from earlier work
[9] = cited from earlier work; remark: listed apart in the source
COVID-19 = details: cited from earlier work
[10] = Grogono et al. 2018, nebulized 40 mg in 4 mL 0.9% saline, healthy adults, multiple dosing per day
[11] = 21 patients with severe COVID-19, within a few days
[12] = 21 patients with severe COVID-19

With `NS(=O)(=O)c1cc(C(=O)O)c(NCc2ccco2)cc1Cl` [furosemide, 4-chloro-N-furfuryl-5-sulfamoylanthranilic acid] the “production of NO” value (NO [1]) was “significantly decreased”, the “production of NO” value (NO [1]; listed as Furosemide) was “decreases” and the “production of TNF-α” value (TNF-α [2]) was “significantly decreased”. For the same molecule, the “production of TNF-α” value (TNF-α [2]; listed as Furosemide) was “decreases”, the “LPS-induced TLR4 expression (TLR4+ cell population)” value (TLR4) was “completely blocked” and the “LPS-induced TLR4 expression (TLR4+ cell population)” value (TLR4; listed as Furosemide) was “significantly decreases”. The “expression of pro-IL-1β” value (pro-IL-1β) was “significantly decreases”, the “production of NO” value (NO [3]) was “significantly reduced” and the “production of IL-6” value (IL-6) was “significantly reduced”. The “production of TNF-α” value (TNF-α [4]) was “significantly reduced”, the “expression of IL-4” value (IL-4) was “induces” and the “expression of IL-1RA” value [5] was “induces”. The expression of arginase (arginase) was “induces”, the “expression of iNOS” value [6] was “suppress” and the solution concentration achievable ([7]; non-salt furosemide, aqueous isotonic saline, pH between 8.0 and 9.3) was 10 mg/mL. For the same molecule, the solution concentration achievable ([7]; weakly basic buffer solution (pH 8)) was 10 mg/mL, the “time to be shuttled from the lung and excreted” value [8] was 4 to 6 h and the “relief of experimentally induced air hunger” value [9, 10] was “effective relief”. The untoward effects [9, 10] was “no untoward effects”, the “dose shown safe by inhalation” value ([9]; inhalation, previous studies) was “up to 120 mg per dose” and the “lung IL-6, IL-8, and TNF-α levels” value ([9]; inhaled furosemide, patients with respiratory conditions) was “reduction”. The urge to urinate ([9]; patients receiving inhaled furosemide up to 40 mg) was “no increase”.

For “tocilizumab: Roche's tocilizumab (Actemra), an IL-6 inhibitor”, the all other symptoms (COVID-19; [11]) is listed as “improved remarkably”, the fevers (COVID-19; [11]) is listed as “returned to normal” and the adverse reactions (COVID-19; [12]) is listed as “no obvious adverse reactions”. The “patients who lowered their oxygen intake” value (COVID-19; [12]) was 75% and the “average time to discharge following treatment” value (COVID-19; nineteen discharged patients) was 13.5 days.
